According to US8450280B2, “Activation of peptide prodrugs by hK2” (GenbSpera, Inc., priority 1999, dated 2013):
Read-outs that look alike come from different tables or passages of the source.

Tests used:
hK2 [1] = target: T1, hK2 (Homo sapiens, UniProt P20151); experiment: Inhibition of hK2 by protease inhibitors (substrate H-Pro-Phe-Arg-AMC); type: biochemical; details: for Activity (%) of hK2, percentage of inhibitor-free control: 10 minutes of incubation, 8.3 nM hK2, 90 μM substrate
T1 construct: made in house
Description: Activity of hK2 (1.6 pmol) was monitored using the substrate H-Pro-Phe-Arg-AMC (SEQ ID NO: 55) (90 μM). Inhibitors, at commonly used concentrations, and hK2 (8.3 nM) were mixed and proteolysis of 90 μM H-Pro-Phe-Arg-AMC (SEQ ID NO: 55) was followed up to 20 minutes, starting directly or 10 minutes after mixing the enzyme with various inhibitors. Inhibition was evaluated by comparison with […] controls.
The proteolytic activity is expressed in percentage of inhibitor-free control after 10 minutes of incubation.
Therefore, PPACK can be used to obtain fast irreversible inhibition of hK2.

hK2 [2] = target: T1, hK2; experiment: Kinetic analysis of hK2 inhibition by zinc; type: biochemical; details: for Ki: two bound zinc ions model, best fit, substrates Pro-Phe-Arg-AMC and Ala-Arg-Arg-AMC, no BSA
Description: Since BSA contains several binding sites for Zn^2+, it could not be used in the kinetics buffer during zinc inhibition experiments. The binding of hK2 to the microtiter well walls caused a constant decrease in the reaction rate, which was however similar to all zinc concentrations. The velocities were calculated from a five-minute measurement time after mixing of the enzymes with the buffer containing substrate and zinc.
The inhibition of hK2 by zinc was first tested against competitive, uncompetitive, mixed, non-competitive, and partial non-competitive inhibitor models using commonly used formulas described for the respective inhibition models. […] The Dixon plots ([Zn^2+]/v) for the inhibition were not linear. However, at low zinc ion concentrations the inhibition pattern looked competitive. The inhibition mechanism is clearly more complex than the ones described by the formulas used. Further analysis of the inhibition mechanism was done by deriving the rate equations for various more complex mechanisms and analyzing the data by least-squares best-fit systems. The possible mechanism required two bound zinc ions, and is presented by Scheme 1.
[formula] where the concentration of free enzyme e is the total enzyme concentration divided by the sum of a) {(the zinc concentration divided by Ki1) times (the zinc concentration divided by Ki2)} and b) {(the zinc concentration divided by Ki1) plus 1} times {(the substrate concentration divided by Ks) plus 1}.
The equation fitted the experimental data quite satisfactorily. The constant values were Ki1=4.6+/−3.9 μM, Ki2=3.2+/−0.7 μM, and k=k′.

[3] = target: sarcoplasmic reticulum (SR) and endoplasmic reticulum (ER) Ca^2+-ATPase (SERCA) pump; details: read-out: apparent dissociation constant; cited from earlier work
hK2 [4] = target: T1, hK2; experiment: Effect of heparin on hK2 activity (Km and kcat of substrate); type: biochemical; details: heparin 10^−4 to 10^−7 M; data not shown
From the text: The increase had no significant effect on the calculation of the constants.

T1 sequence (P20151 25-261): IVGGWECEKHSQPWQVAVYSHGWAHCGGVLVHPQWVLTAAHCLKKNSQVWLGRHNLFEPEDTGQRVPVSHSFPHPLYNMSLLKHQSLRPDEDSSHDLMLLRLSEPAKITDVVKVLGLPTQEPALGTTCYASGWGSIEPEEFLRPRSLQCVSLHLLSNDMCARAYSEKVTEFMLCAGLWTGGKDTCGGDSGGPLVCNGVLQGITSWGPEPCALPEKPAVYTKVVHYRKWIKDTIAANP

[Cl-].[Cl-].[Zn+2] [ZnCl2]
inhibition of hK2 (in words) (hK2 [1]; 8 nM hK2, 90 μM substrate): effectively inhibits hK2
Activity (%) of hK2, percentage of inhibitor-free control (hK2 [1]; inhibitor 100 μM): 10%
Activity (%) of hK2, percentage of inhibitor-free control (hK2 [1]; inhibitor 200 μM): 1.2%
effect on Km and Vmax of hK2 (hK2 [2]): increased the Km and decreased the Vmax
reversal of hK2 inhibition by addition of EDTA (hK2 [2]): totally reversed
Ki (hK2 [2]; read-out: Ki1): 4.6 µM
Ki (hK2 [2]; read-out: Ki2): 3.2 µM

C/C=C(/C)C(=O)O[C@H]1C(C)=C2[C@H]([C@@H]1OC(=O)CCCCCCC)[C@@](C)(OC(C)=O)C[C@H](OC(=O)CCC)[C@@]1(O)[C@H]2OC(=O)[C@@]1(C)O [TG, Thapsigargin]
Kd [3]: ≤ 2.2 pM

heparin
effect on Km of the substrate (hK2 [4]): slightly increased
